Experimental data published in patent publication US10688093B2, “Methods, compositions, and uses of novel Fyn kinase inhibitors” (priority 2015, dated 2020).

target: full-length recombinant human FYN A (Homo sapiens (Human), UniProt P06241); test: ADP-Glo Kinase Assay of FYN kinase inhibition; assay type: biochemical; details: primary screen, initial compounds
Procedure, shortened: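 GST-tagged full-length FYN A (baculovirus, Sf9) at 3 pg preincubated 30 min RT with compound (10-point 3-fold series from 10 μM) in Tris pH 7.5/MgCl2 buffer. 12-mer tyrosine peptide plus 12.5 pmol ATP added, 90 min RT; ADP measured by ADP-Glo luminescence, IC50 from dose-response.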

Sequence of full-length recombinant human FYN A (P06241 whole entry): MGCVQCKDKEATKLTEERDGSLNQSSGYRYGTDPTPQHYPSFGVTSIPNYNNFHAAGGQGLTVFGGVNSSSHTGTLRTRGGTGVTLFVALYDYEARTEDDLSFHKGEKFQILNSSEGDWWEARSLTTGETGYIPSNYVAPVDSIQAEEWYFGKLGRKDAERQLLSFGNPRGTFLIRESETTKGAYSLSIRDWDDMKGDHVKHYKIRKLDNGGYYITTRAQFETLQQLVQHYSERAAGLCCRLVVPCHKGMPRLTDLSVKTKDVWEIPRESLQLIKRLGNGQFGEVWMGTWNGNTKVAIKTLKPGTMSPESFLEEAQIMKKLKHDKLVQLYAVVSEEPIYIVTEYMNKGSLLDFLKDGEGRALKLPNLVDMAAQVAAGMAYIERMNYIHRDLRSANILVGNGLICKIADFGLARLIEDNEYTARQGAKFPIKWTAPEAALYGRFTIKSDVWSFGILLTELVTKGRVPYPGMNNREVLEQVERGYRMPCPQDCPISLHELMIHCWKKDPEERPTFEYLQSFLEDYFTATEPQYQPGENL

Point of comparison: O=C(NCCO)c1cccc(-c2ccc3ncc(-c4ccc5c(c4)OCO5)n3n2)c1 [Compound 369, 3-[3-(1,3-benzodioxol-5-yl)imidazo[1,2-b]pyridazin-6-yl]-N-(2-hydroxyethyl) benzamide], IC50 0.367 µM. Against it:
- NC(=O)c1ccc(-c2ccc3ncc(-c4ccccc4)n3n2)cc1 [Compound 350, 4-(3-phenylimidazo [1,2-b]pyridazin-6-yl)benzamide] — 5.8-fold higher, 2.14 µM
- Oc1cccc(-c2ccc3ncc(-c4ccc5c(c4)OCO5)n3n2)c1 [Compound 351, 3-[3-(1,3-benzodioxol-5-yl)imidazo[1,2-b]pyridazin-6-yl]phenol] — 2.5-fold higher, 0.915 µM
- c1ccc(-c2ccc3ncc(-c4cccnc4)n3n2)cc1 [Compound 352, 6-phenyl-3-(3-pyridyl)imidazo [1,2-b]pyridazine] — 5.3-fold higher, 1.94 µM
- c1cncc(-c2cnc3ccc(-c4cccs4)nn23)c1 [Compound 353, 3-(3-pyridyl)-6-(2-thienyl) imidazo[1,2-b] pyridazine] — within 1.5-fold, 0.346 µM
- CC(=O)Nc1cccc(-c2cnc3ccc(-c4cccc(C(C)=O)c4)nn23)c1 [Compound 354, N-[3-[6-(3-acetylphenyl)imidazo[1,2-b]pyridazin-3-yl]phenyl] acetamide] — within 1.5-fold, 0.466 µM
- COc1cccc(-c2ccc3ncc(-c4cccc(O)c4)n3n2)c1 [Compound 355, 3-[6-(3-methoxyphenyl)imidazo[1,2-b]pyridazin-3-yl]phenol] — 3.4-fold higher, 1.24 µM
- COc1cc(-c2cnc3ccc(-c4ccc(OC)c(OC)c4)nn23)ccc1O [Compound 356, 4-[6-(3,4-dimethoxyphenyl)imidazo[1,2-b]pyridazin-3-yl]-2-methoxy-phenol] — 8.2-fold lower, 0.0445 µM
- COc1ccccc1-c1ccc2ncc(-c3cccc(C(C)=O)c3)n2n1 [Compound 357, 1-[3-[6-(2-methoxyphenyl)imidazo[1,2-b]pyridazin-3-yl]phenyl] ethanone] — 6.3-fold higher, 2.33 µM
- CC(=O)c1cccc(-c2cnc3ccc(-c4cnn(C)c4)nn23)c1 [Compound 358, 1-[3-[6-(1-methylpyrazol-4-yl)imidazo[1,2-3]pyridazin-3-yl]phenyl] ethanone] — within 1.5-fold, 0.373 µM
- CS(=O)(=O)Nc1cccc(-c2ccc3ncc(-c4cccs4)n3n2)c1 [Compound 359, N-[3-[3-(2-thienyl)imidazo [1,2-b]pyridazin-6-yl]phenyl] methane-sulfonamide] — 3.3-fold higher, 1.21 µM
- c1cncc(-c2ccc3ncc(-c4ccc5c(c4)OCO5)n3n2)c1 [Compound 360, 3-(1,3-benzodioxol-5-yl)-6-(3-pyridyl)imidazo [1,2-b]pyridazine] — 1.9-fold higher, 0.688 µM
- OCc1ccc(-c2ccc3ncc(-c4cccnc4)n3n2)cc1 [Compound 361, [4-[3-(3-pyridyl)imidazo [1,2-b]pyridazin-6-yl]phenyl] methanol] — 7.9-fold higher, 2.91 µM
- OCc1ccc(-c2ccc3ncc(-c4cccc(O)c4)n3n2)cc1 [Compound 363, 3-[6-[4-(hydroxymethyl)phenyl]imidazo [1,2-b]pyridazin-3-yl]phenol] — within 1.5-fold, 0.285 µM
- COc1ccccc1-c1ccc2ncc(-c3ccc(CO)cc3)n2n1 [Compound 364] — 11-fold higher, 3.9 µM
- COc1cccc(-c2ccc3ncc(-c4ccc(CO)cc4)n3n2)c1 [Compound 365, [4-[6-(3-methoxyphenyl)imidazo[1,2-b]pyridazin-3-yl]phenyl] methanol] — 4.3-fold higher, 1.56 µM
- COc1cccc(-c2ccc3ncc(-c4ccc(O)c(OC)c4)n3n2)c1 [Compound 366, 2-methoxy-4-[6-(3-methoxyphenyl)imidazo[1,2-b]pyridazin-3-yl]phenol] — 1.7-fold lower, 0.221 µM
- CC(=O)c1cccc(-c2cnc3ccc(-c4ccoc4)nn23)c1 [Compound 367, 1-[3-[6-(3-furyl)imidazo [1,2-b]pyridazin-3-yl]phenyl] ethanone] — 9.4-fold higher, 3.44 µM
- NC(=O)c1ccc(-c2ccc3ncc(-c4cccs4)n3n2)cc1 [Compound 368, 4-[3-(2-thienyl)imidazo [1,2-b]pyridazin-6-yl]benzamide] — 2.6-fold higher, 0.951 µM
- OCc1cccc(-c2ccc3ncc(-c4ccc5c(c4)OCO5)n3n2)c1 [Compound 370, [3-[3-(1,3-benzodioxol-5-yl)imidazo[1,2-b]pyridazin-6-yl]phenyl] methanol] — within 1.5-fold, 0.332 µM
- CC(=O)Nc1cccc(-c2cnc3ccc(-c4cccs4)nn23)c1 [Compound 371, N-[3-[6-(2-thienyl)imidazo [1,2-b]pyridazin-3-yl]phenyl] acetamide] — 1.7-fold lower, 0.21 µM
- Oc1cccc(-c2cnc3ccc(-c4ccccc4)nn23)c1 [Compound 372, 3-(6-phenylimidazo [1,2-b]pyridazin-3-yl)phenol] — 2.4-fold higher, 0.894 µM
- CC(=O)c1cccc(-c2ccc3ncc(-c4cccc(O)c4)n3n2)c1 [Compound 373, 1-[3-[3-(3-hydroxyphenyl)imidazo[1,2-b]pyridazin-6-yl]phenyl] ethanone] — 4.4-fold higher, 1.6 µM
- OCc1ccc(-c2cnc3ccc(-c4cccc(F)c4)nn23)cc1 [Compound 374, [4-[6-(3-fluorophenyl)imidazo[1,2-b]pyridazin-3-yl]phenyl] methanol] — 8.1-fold higher, 2.96 µM
- CC(=O)c1cccc(-c2ccc3ncc(-c4cccc(CO)c4)n3n2)c1 [Compound 375, 1-[3-[3-[3-(hydroxymethyl)phenyl]imidazo [1,2-b]pyridazin-6-yl]phenyl] ethanone] — 5.9-fold higher, 2.17 µM
- CC(=O)c1cccc(-c2cnc3ccc(-c4cccc(N(C)C)c4)nn23)c1 [Compound 376, 1-[3-[6-[3-(dimethylamino)phenyl]imidazo [1,2-b]pyridazin-3-yl]phenyl] ethanone] — 2.4-fold higher, 0.886 µM
- CC(=O)c1cccc(-c2cnc3ccc(-c4ccc(N)nc4)nn23)c1 [Compound 377, 1-[3-[6-(6-amino-3-pyridyl)imidazo[1,2-b]pyridazin-3-yl]phenyl] ethanone] — within 1.5-fold, 0.283 µM
- OCc1ccc(-c2ccc3ncc(-c4cccs4)n3n2)cc1 [Compound 378, [4-[3-(2-thienyl)imidazo [1,2-b]pyridazin-6-yl]phenyl] methanol] — 6.4-fold higher, 2.36 µM
- COc1ccc(-c2cnc3ccc(-c4cccc(NS(C)(=O)=O)c4)nn23)cc1OC [Compound 379, N-[3-[3-(3,4-dimethoxyphenyl)imidazo[1,2-b]pyridazin-6-yl]phenyl] methane-sulfonamide] — 1.9-fold higher, 0.703 µM
- CC(=O)c1cccc(-c2cnc3ccc(-c4cccc(C(N)=O)c4)nn23)c1 [Compound 380, 3-[3-(3-acetylphenyl)imidazo[1,2-b]pyridazin-6-yl]benzamide] — within 1.5-fold, 0.519 µM
- CS(=O)(=O)Nc1cccc(-c2ccc3ncc(-c4cccnc4)n3n2)c1 [Compound 381, N-[3-[3-(3-pyridyl)imidazo [1,2-b]pyridazin-6-yl]phenyl] methane-sulfonamide] — 3.8-fold higher, 1.41 µM
- Oc1cccc(-c2cnc3ccc(-c4ccncc4)nn23)c1 [Compound 382, 3-[6-(4-pyridyl)imidazo [1,2-b]pyridazin-3-yl]phenol] — 1.8-fold lower, 0.203 µM
- Oc1cccc(-c2cnc3ccc(-c4cccc5ncccc45)nn23)c1 [Compound 383, 3-[6-(5-quinolyl)imidazo [1,2-b]pyridazin-3-yl]phenol] — 40-fold higher, 14.6 µM
- CS(=O)(=O)Nc1cccc(-c2ccc3ncc(-c4cccc(CO)c4)n3n2)c1 [Compound 384] — 3.1-fold higher, 1.15 µM
- COc1cc(-c2cnc3ccc(-c4ccccc4OC)nn23)ccc1O [Compound 385, 2-methoxy-4-[6-(2-methoxy-phenyl)imidazo[1,2-b]pyridazin-3-yl]phenol] — 2.6-fold higher, 0.959 µM
- CNC(=O)c1cccc(-c2ccc3ncc(-c4cccc(C(C)=O)c4)n3n2)c1 [Compound 386, 3-[3-(3-acetylphenyl)imidazo[1,2-b]pyridazin-6-yl]-N-methyl-benzamide] — 4.7-fold higher, 1.72 µM
- OCc1cccc(-c2ccc3ncc(-c4cccs4)n3n2)c1 [Compound 387, [3-[3-(2-thienyl)imidazo [1,2-b]pyridazin-6-yl]phenyl] methanol] — 4.6-fold higher, 1.68 µM
- Cn1cc(-c2ccc3ncc(-c4cccs4)n3n2)cn1 [Compound 388, 6-(1-methylpyrazol-4-yl)-3-(2-thienyl)imidazo [1,2-b]pyridazine] — 3.6-fold higher, 1.31 µM
- COc1ccc(-c2cnc3ccc(-c4cccc(C(=O)NCCO)c4)nn23)cc1OC [Compound 389, 3-[3-(3,4-dimethoxyphenyl)imidazo[1,2-a]pyridazin-6-yl]-N-(2-hydroxyethyl) benzamide] — the same, 0.367 µM
- Cn1cc(-c2ccc3ncc(-c4ccc5c(c4)OCO5)n3n2)cn1 [Compound 390, 3-(1,3-benzodioxol-5-yl)-6-(1-methylpyrazol-4-yl)imidazo[1,2-b]pyridazine] — 2.6-fold higher, 0.956 µM
- COc1ccc(-c2cnc3ccc(-c4cnn(C)c4)nn23)cc1OC [Compound 391, 3-(3,4-dimethoxy-phenyl)-6-(1-methylpyrazol-4-yl)imidazo[1,2-b]pyridazine] — the same, 0.367 µM
- Oc1cccc(-c2cnc3ccc(-c4cccc(F)c4)nn23)c1 [Compound 392, 3-[6-(3-fluorophenyl)imidazo[1,2-b]pyridazin-3-yl]phenol] — 6.2-fold higher, 2.26 µM
- CC(=O)c1cccc(-c2cnc3ccc(-c4cccc(N)c4)nn23)c1 [Compound 393, 1-[3-[6-(3-aminophenyl)imidazo[1,2-b]pyridazin-3-yl]phenyl] ethanone] — 3.1-fold higher, 1.12 µM
- COc1ccccc1-c1ccc2ncc(-c3cccnc3)n2n1 [Compound 394, 6-(2-methoxy-phenyl)-3-(3-pyridyl)imidazo [1,2-b]pyridazine] — 6.4-fold higher, 2.35 µM
- COc1ccc(-c2cnc3ccc(-c4ccncc4)nn23)cc1OC [Compound 395, 3-(3,4-dimethoxy-phenyl)-6-(4-pyridyl)imidazo [1,2-b]pyridazine] — within 1.5-fold, 0.404 µM
- Oc1cccc(-c2cnc3ccc(-c4cccnc4)nn23)c1 [Compound 396, 3-[6-(3-pyridyl)imidazo [1,2-b]pyridazin-3-yl]phenol] — 1.6-fold higher, 0.586 µM
- Cn1cc(-c2ccc3ncc(-c4cccc(O)c4)n3n2)cn1 [Compound 397, 3-[6-(1-methylpyrazol-4-yl)imidazo[1,2-b]pyridazin-3-yl]phenol] — within 1.5-fold, 0.388 µM
- OCc1ccc(-c2cnc3ccc(-c4ccc(F)cc4)nn23)cc1 [Compound 398, [4-[6-(4-fluorophenyl)imidazo[1,2-3]pyridazin-3-yl]phenyl] methanol] — 8-fold higher, 2.94 µM
